From PubChem BioAssay (NCI)
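Dose response: 5 concentrations. Exposure: 48 h. Format: 96-well plates. Endpoint: linear interpolation; highest concentration if not reached. Here, GI50 denotes the concentration required for 50% inhibition of growth. Definition used: TGI = concentration required for complete inhibition of growth.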

Key:
Assay in all cases: DTP human tumour cell line panel, 48 h
EKVX NSCLC = test system: EKVX NSCLC
TK-10 renal = test system: TK-10 renal
OVCAR-5 ovarian = test system: OVCAR-5 ovarian
NCI-H23 lung = test system: NCI-H23 lung
OVCAR-3 ovarian = test system: OVCAR-3 ovarian
MDA-MB-231 breast = test system: MDA-MB-231 breast
SK-MEL-28 melanoma = test system: SK-MEL-28 melanoma
IGROV1 ovarian = test system: IGROV1 ovarian
A498 renal = test system: A498 renal
OVCAR-4 ovarian = test system: OVCAR-4 ovarian
MALME-3M melanoma = test system: MALME-3M melanoma
NCI-H522 lung = test system: NCI-H522 lung
SW-620 colon = test system: SW-620 colon
SR leukemia = test system: SR leukemia
PC-3 prostate = test system: PC-3 prostate
NCI-H226 lung = test system: NCI-H226 lung
SF-539 CNS = test system: SF-539 CNS
SN12C renal = test system: SN12C renal
SF-295 CNS = test system: SF-295 CNS
HCT-15 colon = test system: HCT-15 colon
SNB-75 CNS = test system: SNB-75 CNS
RXF 393 renal = test system: RXF 393 renal
A549 NSCLC = test system: A549 NSCLC
UO-31 renal = test system: UO-31 renal
SK-MEL-5 melanoma = test system: SK-MEL-5 melanoma
UACC-257 melanoma = test system: UACC-257 melanoma
U251 CNS = test system: U251 CNS
DU-145 prostate = test system: DU-145 prostate
SK-OV-3 ovarian = test system: SK-OV-3 ovarian
RPMI-8226 leukemia = test system: RPMI-8226 leukemia
HOP-92 NSCLC = test system: HOP-92 NSCLC
SK-MEL-2 melanoma = test system: SK-MEL-2 melanoma
NCI-H460 lung = test system: NCI-H460 lung
786-0 renal = test system: 786-0 renal
SNB-19 CNS = test system: SNB-19 CNS
HCC-2998 colon = test system: HCC-2998 colon
CCRF-CEM leukemia = test system: CCRF-CEM leukemia
LOX IMVI melanoma = test system: LOX IMVI melanoma
SF-268 CNS = test system: SF-268 CNS
MOLT-4 leukemia = test system: MOLT-4 leukemia
HS 578T breast = test system: HS 578T breast
ACHN renal = test system: ACHN renal
T-47D breast = test system: T-47D breast
K-562 leukemia = test system: K-562 leukemia
HOP-62 NSCLC = test system: HOP-62 NSCLC
BT-549 breast = test system: BT-549 breast
UACC-62 melanoma = test system: UACC-62 melanoma
KM12 colon = test system: KM12 colon
M14 melanoma = test system: M14 melanoma
CAKI-1 renal = test system: CAKI-1 renal
MCF7 breast = test system: MCF7 breast
MDA-MB-468 breast = test system: MDA-MB-468 breast
MDA-MB-435 = test system: MDA-MB-435
COLO 205 colon = test system: COLO 205 colon
HCT-116 colon = test system: HCT-116 colon
HT29 colon = test system: HT29 colon

CN(C)c1ccnc(CNCCSC2(c3ccccc3)c3ccccc3C=Cc3ccccc32)c1
GI50 (EKVX NSCLC): 2440 nM
TGI (EKVX NSCLC): 13900 nM
GI50 (TK-10 renal): 3090 nM
TGI (TK-10 renal): 14800 nM
GI50 (OVCAR-5 ovarian): 2450 nM
TGI (OVCAR-5 ovarian): 7640 nM
GI50 (NCI-H23 lung): 2570 nM
TGI (NCI-H23 lung): 7460 nM
GI50 (OVCAR-3 ovarian): 1730 nM
TGI (OVCAR-3 ovarian): 4870 nM
GI50 (MDA-MB-231 breast): 1460 nM
TGI (MDA-MB-231 breast): 3630 nM
GI50 (SK-MEL-28 melanoma): 2020 nM
TGI (SK-MEL-28 melanoma): 4110 nM
GI50 (IGROV1 ovarian): 2940 nM
TGI (IGROV1 ovarian): 17100 nM
GI50 (A498 renal): 9970 nM
TGI (A498 renal): 25300 nM
GI50 (OVCAR-4 ovarian): 3560 nM
TGI (OVCAR-4 ovarian): 16000 nM
GI50 (MALME-3M melanoma): 1540 nM
TGI (MALME-3M melanoma): 3160 nM
GI50 (NCI-H522 lung): 1400 nM
TGI (NCI-H522 lung): 3360 nM
GI50 (SW-620 colon): 579 nM
TGI (SW-620 colon): 2260 nM
GI50 (SR leukemia): 798 nM
TGI (SR leukemia): 5040 nM
GI50 (PC-3 prostate): 1310 nM
TGI (PC-3 prostate): 6910 nM
GI50 (NCI-H226 lung): 2460 nM
TGI (NCI-H226 lung): 8800 nM
GI50 (SF-539 CNS): 1470 nM
TGI (SF-539 CNS): 2830 nM
GI50 (SN12C renal): 1390 nM
TGI (SN12C renal): 6530 nM
GI50 (SF-295 CNS): 1800 nM
TGI (SF-295 CNS): 5180 nM
GI50 (HCT-15 colon): 520 nM
TGI (HCT-15 colon): 11400 nM
GI50 (SNB-75 CNS): 1560 nM
TGI (SNB-75 CNS): 6290 nM
GI50 (RXF 393 renal): 1250 nM
TGI (RXF 393 renal): 4500 nM
GI50 (A549 NSCLC): 556 nM
TGI (A549 NSCLC): 5830 nM
GI50 (UO-31 renal): 2160 nM
TGI (UO-31 renal): 11400 nM
GI50 (SK-MEL-5 melanoma): 1460 nM
TGI (SK-MEL-5 melanoma): 2780 nM
GI50 (UACC-257 melanoma): 1790 nM
TGI (UACC-257 melanoma): 4180 nM
GI50 (U251 CNS): 380 nM
TGI (U251 CNS): 1600 nM
GI50 (DU-145 prostate): 2850 nM
TGI (DU-145 prostate): 8110 nM
GI50 (SK-OV-3 ovarian): 2800 nM
TGI (SK-OV-3 ovarian): 9040 nM
GI50 (RPMI-8226 leukemia): 1620 nM
TGI (RPMI-8226 leukemia): 5440 nM
GI50 (HOP-92 NSCLC): 1250 nM
TGI (HOP-92 NSCLC): 5180 nM
GI50 (SK-MEL-2 melanoma): 2200 nM
TGI (SK-MEL-2 melanoma): 4890 nM
GI50 (NCI-H460 lung): 1610 nM
TGI (NCI-H460 lung): 3130 nM
GI50 (786-0 renal): 1620 nM
TGI (786-0 renal): 3980 nM
GI50 (SNB-19 CNS): 3750 nM
TGI (SNB-19 CNS): 15200 nM
GI50 (HCC-2998 colon): 1410 nM
TGI (HCC-2998 colon): 2980 nM
GI50 (CCRF-CEM leukemia): 681 nM
TGI (CCRF-CEM leukemia): 11900 nM
GI50 (LOX IMVI melanoma): 1430 nM
TGI (LOX IMVI melanoma): 2770 nM
GI50 (SF-268 CNS): 1860 nM
TGI (SF-268 CNS): 7620 nM
GI50 (MOLT-4 leukemia): 2490 nM
TGI (MOLT-4 leukemia): 12400 nM
GI50 (HS 578T breast): 1990 nM
TGI (HS 578T breast): 5920 nM
GI50 (ACHN renal): 1440 nM
TGI (ACHN renal): 12200 nM
GI50 (T-47D breast): 2480 nM
TGI (T-47D breast): 9260 nM
GI50 (K-562 leukemia): 380 nM
TGI (K-562 leukemia): > 100000 nM
GI50 (HOP-62 NSCLC): 2160 nM
TGI (HOP-62 NSCLC): 8100 nM
GI50 (BT-549 breast): 1910 nM
TGI (BT-549 breast): 5000 nM
GI50 (UACC-62 melanoma): 2170 nM
TGI (UACC-62 melanoma): 5390 nM
GI50 (KM12 colon): 1440 nM
TGI (KM12 colon): 3240 nM
GI50 (M14 melanoma): 710 nM
TGI (M14 melanoma): 2500 nM
GI50 (CAKI-1 renal): 2290 nM
TGI (CAKI-1 renal): 12300 nM
GI50 (MCF7 breast): 419 nM
TGI (MCF7 breast): 2390 nM
GI50 (MDA-MB-468 breast): 460 nM
TGI (MDA-MB-468 breast): 2060 nM
GI50 (MDA-MB-435): 215 nM
TGI (MDA-MB-435): 495 nM
GI50 (COLO 205 colon): 1610 nM
TGI (COLO 205 colon): 3110 nM
GI50 (HCT-116 colon): 526 nM
TGI (HCT-116 colon): 2100 nM
GI50 (HT29 colon): 1690 nM
TGI (HT29 colon): 3920 nM
